Results: patent publication US10174037B2, “Dihydropyrazolopyrimidinone compounds as PDE2 inhibitors” (Merck Sharp & Dohme Corp., priority 2015, dated 2019)
Like-named read-outs stand apart in the source and are kept apart here.

Tests used:
[1] = molecular target: human PDE2A1 (Homo sapiens (Human), UniProt O00408); assay: PDE selectivity IMAP FP assay, human PDE2A1; format: biochemical; conditions: Human PDE2
Summary of the method: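 Compound titrations run against PDE2 in Tris HCl pH 7.2 buffer with MgCl2 and DTT for 60 min at room temperature, using 50 nM FAM-cAMP plus 1000 nM cGMP and enzyme giving 20% conversion.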

[2] = molecular target: Rhesus PDE2A3 (Macaca mulatta, UniProt B3VTJ2); assay: PDE2 fluorescence polarization (IMAP FP) assay, rhesus PDE2A3; format: biochemical, rhesus macaque
[3] = Lab B, read-out: Human PDE2 Ki (nM) Lab B
[4] = Lab B, read-out: Rhesus PDE2 Ki (nM) Lab B
[5] = Lab A, read-out: Human PDE2 Ki (nM) Lab A
[6] = Lab A, read-out: Rhesus PDE2 Ki (nM) Lab A

Chain of human PDE2A1 (O00408 other isoform, or with tags, fused parts or gaps): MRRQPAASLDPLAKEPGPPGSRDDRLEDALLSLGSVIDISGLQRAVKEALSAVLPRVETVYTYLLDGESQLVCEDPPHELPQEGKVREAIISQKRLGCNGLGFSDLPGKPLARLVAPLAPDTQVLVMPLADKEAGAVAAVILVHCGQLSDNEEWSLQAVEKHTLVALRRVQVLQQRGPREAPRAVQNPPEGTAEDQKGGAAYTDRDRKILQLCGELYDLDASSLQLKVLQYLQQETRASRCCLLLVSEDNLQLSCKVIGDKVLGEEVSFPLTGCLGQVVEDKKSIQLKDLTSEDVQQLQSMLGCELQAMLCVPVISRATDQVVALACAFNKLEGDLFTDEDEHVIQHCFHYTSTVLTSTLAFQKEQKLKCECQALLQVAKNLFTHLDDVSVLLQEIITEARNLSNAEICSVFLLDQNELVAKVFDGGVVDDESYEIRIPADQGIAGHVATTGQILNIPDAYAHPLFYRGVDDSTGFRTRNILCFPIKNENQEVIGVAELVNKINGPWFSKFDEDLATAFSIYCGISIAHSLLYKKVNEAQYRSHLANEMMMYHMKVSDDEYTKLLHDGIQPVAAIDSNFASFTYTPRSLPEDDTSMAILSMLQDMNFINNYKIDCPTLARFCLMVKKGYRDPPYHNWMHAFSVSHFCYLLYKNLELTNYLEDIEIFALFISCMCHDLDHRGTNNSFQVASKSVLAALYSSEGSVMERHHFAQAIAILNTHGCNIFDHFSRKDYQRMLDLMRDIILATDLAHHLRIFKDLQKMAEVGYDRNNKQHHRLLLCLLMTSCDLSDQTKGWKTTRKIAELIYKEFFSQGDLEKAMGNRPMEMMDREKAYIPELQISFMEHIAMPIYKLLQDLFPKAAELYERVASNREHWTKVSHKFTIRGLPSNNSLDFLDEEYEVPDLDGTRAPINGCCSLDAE
Chain of Rhesus PDE2A3 (B3VTJ2 1-941): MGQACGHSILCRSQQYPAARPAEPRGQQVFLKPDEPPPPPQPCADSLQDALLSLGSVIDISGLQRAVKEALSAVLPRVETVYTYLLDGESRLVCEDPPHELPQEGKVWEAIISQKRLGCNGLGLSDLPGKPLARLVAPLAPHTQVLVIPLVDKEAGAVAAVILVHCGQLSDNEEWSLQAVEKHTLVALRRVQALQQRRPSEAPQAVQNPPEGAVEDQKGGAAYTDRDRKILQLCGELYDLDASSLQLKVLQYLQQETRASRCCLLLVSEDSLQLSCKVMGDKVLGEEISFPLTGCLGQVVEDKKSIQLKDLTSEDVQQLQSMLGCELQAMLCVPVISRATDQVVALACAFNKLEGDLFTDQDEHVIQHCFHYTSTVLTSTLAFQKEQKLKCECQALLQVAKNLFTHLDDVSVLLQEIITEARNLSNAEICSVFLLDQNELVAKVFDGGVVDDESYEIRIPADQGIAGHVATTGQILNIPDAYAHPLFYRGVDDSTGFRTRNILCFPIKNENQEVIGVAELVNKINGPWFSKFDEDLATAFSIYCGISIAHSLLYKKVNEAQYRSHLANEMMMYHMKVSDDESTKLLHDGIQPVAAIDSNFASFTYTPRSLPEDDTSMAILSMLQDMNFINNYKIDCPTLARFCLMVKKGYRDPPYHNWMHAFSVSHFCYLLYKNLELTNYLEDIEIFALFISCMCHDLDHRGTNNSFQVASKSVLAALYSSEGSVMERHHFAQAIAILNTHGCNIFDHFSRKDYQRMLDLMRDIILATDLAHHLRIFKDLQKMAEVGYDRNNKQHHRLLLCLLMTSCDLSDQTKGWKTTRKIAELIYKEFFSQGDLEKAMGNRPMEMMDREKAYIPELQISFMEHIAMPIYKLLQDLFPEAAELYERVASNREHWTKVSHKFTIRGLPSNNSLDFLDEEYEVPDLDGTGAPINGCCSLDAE

SMILES | Ki [1, 3] [nM] | Ki [2, 4] [nM] | Ki [1, 5] [nM] | Ki [2, 6] [nM]
C[C@@H](c1ccc(C(F)(F)F)cc1)n1nc(CF)c2c(=O)[nH]c(N3CCCC3)nc21 [Example 226, 3-(Fluoromethyl)-6-pyrrolidin-1-yl-1-{(1S)-1-[4-(trifluoromethyl)phenyl]ethyl}-1,5-dihydro-4H-pyrazolo[3,4-d]pyrimidin-4-one] | 0.22 | 0.26 |  | 
O=c1[nH]c(O)nc2c1c(CO)nn2C(CF)c1ccc(C(F)(F)F)cc1 (stereo not drawn) [Example 33, 1-(2-Fluoro-1-(4-(trifluoromethyl)phenyl)ethyl)-6-hydroxy-3-(hydroxymethyl)-1H-pyrazolo[3,4-d]pyrimidin-4(5H)-one] | 71 | 50 |  | 
CC(C)C(c1ccc(OC(F)F)cc1)n1nc(CO)c2c(=O)[nH]c(N(C)C)nc21 (single isomer, unassigned) [Example 120] | 0.21 | 0.28 |  | 
O=c1[nH]c(O)nc2c1c(CF)nn2C(c1ccc(C(F)(F)F)cc1)C1CC1 (stereo not drawn) [Example 39, 1-(Cyclopropyl(4-(trifluoromethyl)phenyl)methyl)-3-(fluoromethyl)-6-hydroxy-1H-pyrazolo[3,4-d]pyrimidin-4(5H)-one] | 6.3 | 5.5 | 2.2 | 3.6
CC(C)C(c1ccc(C(F)F)cc1)n1nc(CO)c2c(=O)[nH]c(N(C)C)nc21 (single isomer, unassigned) [Example 91, (S)- or (R)-1-(1-(4-(Difluoromethyl)phenyl)-2-methylpropyl)-6-(dimethylamino)-3-(hydroxymethyl)-1H-pyrazolo[3,4-d]pyrimidin-4(5H)-one] | 0.18 | 0.18 |  | 
CN(C)c1nc2c(c(CO)nn2C(c2ccc(OC(F)F)cc2)C2CC2)c(=O)[nH]1 (single isomer, unassigned) [Example 129, (S)- or (R)-(Cyclopropyl(4-(difluoromethoxy)phenyl)methyl)-6-(dimethylamino)-3-(hydroxymethyl)-1H-pyrazolo[3,4-d]pyrimidin-4(5H)-one] | 0.55 | 1 |  | 
O=c1[nH]c(O)nc2c1c(CC(F)(F)F)nn2C(c1ccc(C(F)(F)F)c(F)c1)C1CC1 (single isomer, unassigned) [Example 238, (R)- or (S)-1-(Cyclopropyl(3-fluoro-4-(trifluoromethyl)phenyl)methyl)-6-hydroxy-3-(2,2,2-trifluoroethyl)-1H-pyrazolo[3,4-d]pyrimidin-4(5H)-one] | 5.8 | 7.1 |  | 
CC(C)C(c1ccc(C(C)(F)F)c(F)c1)n1nc(CO)c2c(=O)[nH]c(N(C)C)nc21 (single isomer, unassigned) [Example 117, (R)- or (S)-1-(1-(4-(1,1-Difluoroethyl)-3-fluorophenyl)-2-methylpropyl)-6-(dimethylamino)-3-(hydroxymethyl)-1H-pyrazolo[3,4-d]pyrimidin-4(5H)-one] | 0.017 | 0.025 |  | 

More lines, now with the values ahead:

Ki [1, 3] [nM] | Ki [2, 4] [nM] | Ki [1, 5] [nM] | Ki [2, 6] [nM] | SMILES
6.1 | 12 |  |  | CC(c1ccc(C(C)(C)C)cc1)n1nc(CO)c2c(=O)[nH]c(N(C)C)nc21 (single isomer, unassigned) [Example 66, (R)- or (S)-1-(1-(4-tert-Butylphenyl)ethyl)-6-(dimethylamino)-3-(hydroxymethyl)-1H-pyrazolo[3,4-d]pyrimidin-4(5H)-one]
0.24 | 0.3 |  |  | CC(c1ccc(OC(F)(F)F)c(F)c1)n1nc(CO)c2c(=O)[nH]c(N(C)C)nc21 (single isomer, unassigned) [Example 85, (S)- or (R)-6-(Dimethylamino)-1-(1-(3-fluoro-4-(trifluoromethoxy)phenyl)ethyl)-3-(hydroxymethyl)-1H-pyrazolo[3,4-d]pyrimidin-4(5H)-one]
0.23 | 0.18 |  |  | CC(c1ccc(C(C)(F)F)cc1F)n1nc(CO)c2c(=O)[nH]c(N(C)C)nc21 (single isomer, unassigned) [Example 108, (R)- or (S)-1-(1-(4-(1,1-DiHuoroethyl)-2-fluoroplienyl)ethyl)-6-(dimethylamino)-3-(hydroxymethyl)-1H-pyrazolo[3,4-d]pyrimidin-4(5H)-one]
0.022 | 0.03 |  |  | CC(C)C(c1ccc(C(C)(F)F)c(F)c1)n1nc(CF)c2c(=O)[nH]c(N(C)C)nc21 (single isomer, unassigned) [Example 219, (S)- or (R)-1-(1-(4-(1,1-Difluoroethyl)-3-fluorophenyl)-2-methylpropyl)-6-(dimethylamino)-3-(fluoromethyl)-1H-pyrazolo[3,4-d]pyrimidin-4(5H)-one]
2.1 | 2 | 0.56 | 1.7 | CC(C)C(c1ccc(C(F)(F)F)cc1)n1nc(CF)c2c(=O)[nH]c(O)nc21 (stereo not drawn) [Example 40, 3-(Fluoromethyl)-6-hydroxy-1-(2-methyl-1-(4-(trifluoromethyl)phenyl)propyl)-1H-pyrazolo[3,4-d]pyrimidin-4(5H)-one]
1.1 | 0.79 |  |  | CN(C)c1nc2c(c(CO)nn2C(c2ccc(C(F)(F)F)cc2)C2CC2)c(=O)[nH]1 (single isomer, unassigned) [Example 75, (S)- or (R)-1-(Cyclopropyl(4-(trifluoromethyl)phenyl)methyl)-6-(dimethylamino)-3-(hydroxymethyl)-1H-pyrazolo[3,4-d]pyrimidin-4(5H)-one]
0.6 | 0.72 |  |  | CN(C)c1nc2c(c(CO)nn2C(c2ccc(C(F)(F)F)cc2F)C2CC2)c(=O)[nH]1 (single isomer, unassigned) [Example 135, (S)- or (R)-1-(Cyclopropyl(2-fluoro-4-(trifluoromethyl)phenyl)methyl)-6-(dimethylamino)-3-(hydroxymethyl)-1H-pyrazolo[3,4-d]pyrimidin-4(5H)-one]
0.07 | 0.097 |  |  | CN(C)c1nc2c(c(CO)nn2C(c2ccc(C(C)(F)F)cc2)C2CC2)c(=O)[nH]1 (single isomer, unassigned) [Example 140, (R)- or (S)-1-(Cyclopropyl(4-(1,1-difluoroethyl)phenyl)methyl)-6-(dimethylamino)-3-(hydroxymethyl)-1H-pyrazolo[3,4-d]pyrimidin-4(5H)-one]
0.2 | 0.18 |  |  | CC(c1ccc(OC(F)(F)F)c(F)c1)n1nc(CF)c2c(=O)[nH]c(N(C)C)nc21 (single isomer, unassigned) [Example 167, (S)- or (R)-6-(Dimethylamino)-1-(1-(3-fluoro-4-(trifluoromethoxy)phenyl)ethyl)-3-(fluoromethyl)-1H-pyrazolo[3,4-d]pyrimidin-4(5H)-one]
0.33 | 0.28 |  |  | CC(c1ccc(OC(F)(F)F)cc1)n1nc(CF)c2c(=O)[nH]c(N(C)C)nc21 (single isomer, unassigned) [Example 165, (S)- or (R)-6-(Dimethylamino)-3-(fluoromethyl)-1-(1-(4-(trifluoromethoxy)phenyl)ethyl)-1H-pyrazolo[3,4-d]pyrimidin-4(5H)-one]
9.6 | 13 |  |  | CC(c1ccc(OC(F)(F)F)c(F)c1)n1nc(CC(F)(F)F)c2c(=O)[nH]c(O)nc21 (racemic) [Example 229, 1-(1-(3-Fluoro-4-(trifluoromethoxy)phenyl)ethyl)-6-hydroxy-3-(2,2,2-trifluoroethyl)-1H-pyrazolo[3,4-d]pyrimidin-4(5H)-one]
